Laboratory results from article PMC6437058 (mBio, 2019).

Molecular target: anthranilate synthase TrpE (Rv1609) (Mycobacterium tuberculosis, UniProt P9WFX3)
Assay: biochemical

anthranilate synthase TrpE (Rv1609), sequence (P9WFX3 whole entry): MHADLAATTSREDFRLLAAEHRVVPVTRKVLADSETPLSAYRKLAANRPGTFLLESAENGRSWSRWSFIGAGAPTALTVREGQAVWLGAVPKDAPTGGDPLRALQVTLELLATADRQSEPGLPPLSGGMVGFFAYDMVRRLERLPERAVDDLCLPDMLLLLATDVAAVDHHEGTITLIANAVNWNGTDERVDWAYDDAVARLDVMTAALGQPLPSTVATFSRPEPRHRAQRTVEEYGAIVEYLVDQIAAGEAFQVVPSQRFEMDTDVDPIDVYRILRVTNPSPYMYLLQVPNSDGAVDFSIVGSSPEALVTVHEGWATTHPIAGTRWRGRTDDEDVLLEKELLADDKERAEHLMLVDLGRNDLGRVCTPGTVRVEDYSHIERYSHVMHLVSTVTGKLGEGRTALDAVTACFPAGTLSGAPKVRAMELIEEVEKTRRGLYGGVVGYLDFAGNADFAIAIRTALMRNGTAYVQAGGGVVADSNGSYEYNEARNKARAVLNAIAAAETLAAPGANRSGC

N[C@@H](Cc1c[nH]c2ccc(F)cc12)C(=O)O [F-Trp, 5-fluoro-L-tryptophan]
IC50: 4.1 µM
